Drawing on US20160229839A1, “Factor XIa Inhibitors” (Merck Sharp & Dohme Corp., priority 2013, published 2016), this text covers Ki for 25 molecules.

Some results are limits rather than exact numbers.

The target of this assay is T1, purified human Factor XIa (Homo sapiens, UniProt P03951).
T1 construct: purified human Factor XIa; purchased Sekisui Diagnostics
T1 sequence (P03951 388-625 limits assumed): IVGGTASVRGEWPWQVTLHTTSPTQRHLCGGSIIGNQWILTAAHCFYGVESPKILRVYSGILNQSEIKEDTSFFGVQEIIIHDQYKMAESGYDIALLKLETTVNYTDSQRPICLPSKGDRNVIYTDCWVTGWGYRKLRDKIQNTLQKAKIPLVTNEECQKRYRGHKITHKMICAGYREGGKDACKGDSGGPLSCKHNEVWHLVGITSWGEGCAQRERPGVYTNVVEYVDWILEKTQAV
T1 sequence (P03951 19-387 partner limits assumed): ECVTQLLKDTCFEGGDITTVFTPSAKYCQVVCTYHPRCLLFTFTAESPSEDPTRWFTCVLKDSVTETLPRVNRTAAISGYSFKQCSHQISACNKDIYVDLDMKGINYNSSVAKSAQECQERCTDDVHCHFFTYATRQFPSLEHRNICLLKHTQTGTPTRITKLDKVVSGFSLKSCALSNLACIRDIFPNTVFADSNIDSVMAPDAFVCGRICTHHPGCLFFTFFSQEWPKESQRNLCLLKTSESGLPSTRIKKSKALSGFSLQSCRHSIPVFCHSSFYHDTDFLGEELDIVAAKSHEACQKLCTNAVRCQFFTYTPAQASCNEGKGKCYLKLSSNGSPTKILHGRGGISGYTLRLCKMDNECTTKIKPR
The experiment in a line: Factor XIa Assay (fluorogenic substrate Z-Gly-Pro-Arg-AFC). In kind it is biochemical. The note with it: purified human Factor XIa 40 pM; Z-Gly-Pro-Arg-AFC 100 μM; 50 mM HEPES pH 7.4; read-out: hFXIa Ki (nM), Factor XIa inhibition. Here is the method:
The effectiveness of compound of the present invention as inhibitors of Coagulation Factor XIa can be determined using a relevant purified serine protease, and an appropriate synthetic substrate. The rate of hydrolysis of the chromogenic or fluorogenic substrate by the relevant serine protease was measured both in the absence and presence of compounds of the present invention. Assays were conducted at room temperature or at 37° C. […] A decrease in the rate of fluorescence change in the presence of inhibitor is indicative of enzyme inhibition. Such methods are known to one skilled in the art. The results of this assay are expressed as the inhibitory constant, Ki.
Factor XIa determinations were made in 50 mM HEPES buffer at pH 7.4 containing 150 mM NaCl, 5 mM CaCl2, and 0.1% PEG 8000 (polyethylene glycol; J T Baker or Fisher Scientific). Determinations were made using purified human Factor XIa at a final concentration of 40 pM (Sekisui Diagnostics) and he synthetic substrate, Z-Gly-Pro-Arg-AFC, TFA salt (Sigma #C0980) at a concentration of 100 μM.
Activity assays were performed by diluting a stock solution of substrate at least tenfold to a final concentration ≦0.1 Km into a solution containing enzyme or enzyme equilibrated with inhibitor. Times required to achieve equilibration between enzyme and inhibitor were determined in control experiments. Initial velocities of product formation in the absence (Vo) or presence of inhibitor (Vi) were measured. Assuming competitive inhibition, and that unity is negligible compared Km/[S], [I]/e, and [I]/e (where [S], [I], and e respectively represent the total concentrations, of substrate, inhibitor and enzyme), the equilibrium constant (Ki) for dissociation of the inhibitor from the enzyme can be obtained from the dependence of Vo/Vi on [I] shown in the following equation.
For `Cc1cc(C2CCCN(C(=O)/C=C/c3cc(Cl)ccc3-n3cnnn3)C2C(=O)Nc2ccc(C(=O)O)cc2)ccc1F` (stereo not shown) [Example 1-37, (E)-4-(1-(3-(5-chloro-2-(1H-tetrazol-1-yl)phenyl)acryloyl)-3-(4-fluoro-3-methylphenyl)piperidine-2-carboxamido)benzoic acid], the Ki was determined as 51.5 nM.
`COC(=O)Nc1ccc(-c2c[nH]c(C3C(c4ccccc4)CCCN3C(=O)/C=C/c3cc(Cl)ccc3-n3cnnn3)n2)cc1` (stereo not shown) [Example 1-38, (E)-methyl (4-(2-(1-(3-(5-chloro-2-(1H-tetrazol-1-yl)phenyl)acryloyl)-3-phenylpiperidin-2-yl)-1H-imidazol-4-yl)phenyl)carbamate]: the Ki was found to be 90 nM.
For `NCC1CCC(C(=O)N2CCCC(c3ccccc3)C2C(=O)Nc2ccc(C(=O)O)cc2)CC1` (stereo not shown) [Example 1-39, (4-(2-((4-carboxyphenyl)carbamoyl)-3-phenylpiperidine-1-carbonyl)cyclohexyl)methanaminium 2,2,2-trifluoroacetate], the Ki turned out to be 45.6 nM.
Regarding `COC(=O)c1ccc(-c2c[nH]c(C3C(c4ccccc4)CCCN3C(=O)/C=C/c3cc(Cl)ccc3-n3cnnn3)n2)cc1` (stereo not shown) [Example 1-40, (E)-methyl 4-(2-(1-(3-(5-chloro-2-(1H-tetrazol-1-yl)phenyl)acryloyl)-3-phenylpiperidin-2-yl)-1H-imidazol-4-yl)benzoate], the inhibition constant Ki is > 10000 nM.
`O=C(/C=C/c1cc(Cl)ccc1-n1cnnn1)N1CCCC(c2ccccc2)C1c1nc(-c2ccccn2)c[nH]1` (stereo not shown) [Example 1-41, (E)-3-(5-chloro-2-(1H-tetrazol-1-yl)phenyl)-1-(3-phenyl-2-(4-(pyridin-2-yl)-1H-imidazol-2-yl)piperidin-1-yl)prop-2-en-1-one]: the Ki came out at 3270 nM.
In the case of `O=C(/C=C/c1cc(Cl)ccc1-n1cnnn1)N1CCCC(c2ccccc2)C1c1nc(-c2ccncc2)c[nH]1` (stereo not shown) [Example 1-42, (E)-3-(5-chloro-2-(1H-tetrazol-1-yl)phenyl)-1-(3-phenyl-2-(4-(pyridin-4-yl)-1H-imidazol-2-yl)piperidin-1-yl)prop-2-en-1-one], the inhibition constant (Ki) was 237 nM.
Turning to `NCc1ccc(C(=O)N2CCCC(c3ccccc3)C2C(=O)Nc2ccc(C(=O)O)cc2)cc1C1CC1` (stereo not shown) [Example 1-43, (4-(2-((4-carboxyphenyl)carbamoyl)-3-phenylpiperidine-1-carbonyl)-2-cyclopropylphenyl)methanaminium 2,2,2-trifluoroacetate], the Ki amounted to 169 nM.
`COC(=O)Nc1ccc(-c2c[nH]c(C3C(c4ccccc4)CCCN3C(=O)/C=C/c3cc(Cl)ccc3-n3cnnn3)n2)c(Br)c1` (stereo not shown) [Example 1-44, (E)-methyl (3-bromo-4-(2-(1-(3-(5-chloro-2-(1H-tetrazol-1-yl)phenyl)acryloyl)-3-phenylpiperidin-2-yl)-1H-imidazol-4-yl)phenyl)carbamate]: the Ki was 411 nM.
For `O=C(O)c1ccc(-c2c[nH]c(C3C(c4ccccc4)CCCN3C(=O)/C=C/c3cc(Cl)ccc3-n3cnnn3)n2)cc1` (stereo not shown) [Example 1-45, (E)-4-(2-(1-(3-(5-chloro-2-(1H-tetrazol-1-yl)phenyl)acryloyl)-3-phenylpiperidin-2-yl)-1H-imidazol-4-yl)benzoic acid], the Ki came to 2820 nM.
On to `COC(=O)Nc1ccc(-c2c[nH]c(C3C(c4ccccc4)CCCN3C(=O)/C=C/c3cc(Cl)ccc3-n3cnnn3)n2)cc1` (stereo not shown) [Example 1-46, (E)-methyl (4-(2-(1-(3-(5-chloro-2-(1H-tetrazol-1-yl)phenyl)acryloyl)-3-phenylpiperidin-2-yl)-1H-imidazol-4-yl)phenyl)carbamate], for which the Ki came out at 65.5 nM.
As to `COC(=O)Nc1ccc(-c2c[nH]c(C3C(c4ccccc4)CCCN3C(=O)/C=C/c3cc(Cl)ccc3-n3cnnn3)n2)cc1` (stereo not shown) [Example 1-47, (E)-methyl (4-(2-(1-(3-(5-chloro-2-(1H-tetrazol-1-yl)phenyl)acryloyl)-3-phenylpiperidin-2-yl)-1H-imidazol-4-yl)phenyl)carbamate], the Ki is > 10000 nM.
Under `COC(=O)Nc1ccc(-c2c[nH]c(C3C(c4ccccc4)CCCN3C(=O)/C=C/c3cc(Cl)ccc3-n3cnnn3)n2)c(N)c1` (stereo not shown) [Example 1-48, (E)-methyl (3-amino-4-(2-(1-(3-(5-chloro-2-(1H-tetrazol-1-yl)phenyl)acryloyl)-3-phenylpiperidin-2-yl)-1H-imidazol-4-yl)phenyl)carbamate] stands 103 nM.
Take `NCC1CCC(C(=O)N2CCCC(c3ccccc3)C2C(=O)Nc2ccc(C(=O)O)cc2)CC1` (stereo not shown) [Example 1-49, 4-(1-(4-(aminomethyl)cyclohexanecarbonyl)-3-phenylpiperidine-2-carboxamido)benzoic acid]: the Ki worked out at 916 nM.
Under `NCC1CCC(C(=O)N2CCCC(c3ccccc3)C2C(=O)Nc2ccc(C(=O)O)cc2)CC1` (stereo not shown) [Example 1-50, 4-(1-(4-(aminomethyl)cyclohexanecarbonyl)-3-phenylpiperidine-2-carboxamido)benzoic acid] stands 72.8 nM.
With `CCCC(=O)Nc1cc(NC(=O)OC)ccc1-c1c[nH]c(C2C(c3ccccc3)CCCN2C(=O)/C=C/c2cc(Cl)ccc2-n2cnnn2)n1` (stereo not shown) [Example 1-51, (E)-methyl (3-butyramido-4-(2-(1-(3-(5-chloro-2-(1H-tetrazol-1-yl)phenyl)acryloyl)-3-phenylpiperidin-2-yl)-1H-imidazol-4-yl)phenyl)carbamate], the Ki is > 10000 nM.
As to `COC(=O)Nc1ccc(-c2nc(C3C(c4ccccc4)CCCN3C(=O)/C=C/c3cc(Cl)ccc3-n3cnnn3)[nH]c2C)cc1` (stereo not shown) [Example 1-52, (E)-methyl (4-(2-(1-(3-(5-chloro-2-(1H-tetrazol-1-yl)phenyl)acryloyl)-3-phenylpiperidin-2-yl)-5-methyl-1H-imidazol-4-yl)phenyl)carbamate], the Ki turned out to be 95.8 nM.
The result for `O=C(/C=C/c1cc(Cl)ccc1-n1cnnn1)N1CCCC(c2ccccc2)C1c1nc(-c2ccc3[nH]c(=O)oc3c2)c[nH]1` (stereo not shown) [Example 1-53, (E)-6-(2-(1-(3-(5-chloro-2-(1H-tetrazol-1-yl)phenyl)acryloyl)-3-phenylpiperidin-2-yl)-1H-imidazol-4-yl)benzo[d]oxazol-2(3H)-one] reads > 10000 nM.
On to `COC(=O)Nc1ccc(-c2nc([C@@H]3[C@H](c4ccccc4)CCCN3C(=O)/C=C/c3cc(Cl)ccc3-n3cnnn3)[nH]c2Cl)cc1` [Example 1-55, Methyl (4-(5-chloro-2-((2S,3S)-1-((E)-3-(5-chloro-2-(1H-tetrazol-1-yl)phenyl)acryloyl)-3-phenylpiperidin-2-yl)-1H-imidazol-4-yl)phenyl)carbamate], for which the Ki is 31.5 nM.
Regarding `O=C(O)c1ccc(NC(=O)[C@H]2[C@@H](c3ccccc3)CCCN2C(=O)/C=C/c2cc(Cl)ccc2-n2cnnn2)cc1` [Example 1-56, 4-((2R,3R)-1-((E)-3-(5-chloro-2-(1H-tetrazol-1-yl)phenyl)acryloyl)-3-phenylpiperidine-2-carboxamido)benzoic acid], the Ki was found to be 4010 nM.
On to `O=C(O)c1cccc(-c2c[nH]c(C3C(c4ccccc4)CCCN3C(=O)/C=C/c3cc(Cl)ccc3-n3cnnn3)n2)c1` (stereo not shown) [Example 1-58, (E)-3-(2-(1-(3-(5-chloro-2-(1H-tetrazol-1-yl)phenyl)acryloyl)-3-phenylpiperidin-2-yl)-1H-imidazol-4-yl)benzoic acid], for which the Ki came to 56.9 nM.
The result for `O=C(Nc1ccc2[nH]ncc2c1)C1C(c2ccccc2)CCCN1C(=O)/C=C/c1cc(Cl)ccc1-n1cnnn1` (stereo not shown) [Example 1-59, (E)-1-(3-(5-chloro-2-(1H-tetrazol-1-yl)phenyl)acryloyl)-N-(1H-indazol-5-yl)-3-phenylpiperidine-2-carboxamide] reads 13.9 nM; that for `O=C(Nc1ccc2[nH]ncc2c1)C1C(c2ccccc2)CCCN1C(=O)/C=C/c1cc(Cl)ccc1-n1cnnn1` (stereo not shown) [Example 1-60, (E)-1-(3-(5-chloro-2-(1H-tetrazol-1-yl)phenyl)acryloyl)-N-(1H-indazol-5-yl)-3-phenylpiperidine-2-carboxamide], 145 nM; that for `O=C(Nc1ccc2cn[nH]c2c1)C1C(c2ccccc2)CCCN1C(=O)/C=C/c1cc(Cl)ccc1-n1cnnn1` (stereo not shown) [Example 1-61, (E)-1-(3-(5-chloro-2-(1H-tetrazol-1-yl)phenyl)acryloyl)-N-(1H-indazol-6-yl)-3-phenylpiperidine-2-carboxamide], 91.6 nM.
The result for `O=C1Cc2cc(-c3cnc([C@H]4[C@@H](c5ccccc5)CCCN4C(=O)/C=C/c4cc(Cl)ccc4-n4cnnn4)[nH]3)ccc2N1` [Example 1-62, 2-((2R,3R)-1-((E)-3-(5-chloro-2-(1H-tetrazol-1-yl)phenyl)acryloyl)-3-phenylpiperidin-2-yl)-5-(2-oxoindolin-5-yl)-1H-imidazol-3-ium 2,2,2-trifluoroacetate] reads > 10000 nM; that for `O=C1Cc2cc(-c3cnc([C@@H]4[C@H](c5ccccc5)CCCN4C(=O)/C=C/c4cc(Cl)ccc4-n4cnnn4)[nH]3)ccc2N1` [Example 1-63, 5-(2-((2S,3S)-1-((E)-3-(5-chloro-2-(1H-tetrazol-1-yl)phenyl)acryloyl)-3-phenylpiperidin-2-yl)-1H-imidazol-5-yl)indolin-2-one], 207 nM.

By Ki is commonly meant the equilibrium dissociation constant of an inhibitor or competing ligand from its target.
